Data published in patent EP3818828A1 (priority 2019, dated 2021).
Converted amounts (≈) assume the structure as drawn. Like-named read-outs stand apart in the source and are kept apart here.

Tests used:
Type in all cases: cell-based
Phytophthora infestans [1] = assay: microbe, parasite or virus in culture; conditions: 1 mg/mL
F. graminearum [2] = assay: microbe, parasite or virus in culture
Pyricularia grisea = assay: microbe, parasite or virus in culture
F. graminearum [3] = assay: microbe, parasite or virus in culture; remark: listed apart in the source
Fusarium graminearum [4] = assay: microbe, parasite or virus in culture
Phytophthora infestans [5] = assay: microbe, parasite or virus in culture
Phytophthora infestans [6] = conditions: Phytophthora infestas; 1 mg/mL
Magnaporthe grisea = assay: microbe, parasite or virus in culture
Colletotrichum capsici [7] = assay: Toxicity determination (EC50) on mycelial growth, growth rate method
Procedure: (§1) The inhibition of samples for testing on the mycelial growth of plant pathogenic fungi for testing is determined with a growth rate method. 3-(3',4'-methylenedioxy phenyl)-N-n-propyl acrylamide, 3-(3',4'-methylenedioxy phenyl)-piperidine acrylate and five control agents are dissolved with dimethyl sulfoxide (DMSO), then formulated at 5-7 concentrations of different gradients for test following the trial test results, with the same concentration of DMSO as the control solvent, each treatment in triplicate. Fungal cakes with a diameter of 4 mm are taken from the edge of the colony, inoculated into the center of a PDA plate containing different agents of different concentrations and the DMSO control, with one piece of fungal cake inoculated in each plate (with a diameter of […]), and incubated in a constant temperature incubator at a temperature of 22±1.5°C. 7 days later (10-20 days may be needed for some pathogenic fungi), the diameter of the colony is measured with a cross over method according to the mycelial growth profile of the control pathogenic fungi, then the inhibition rate of mycelial growth is calculated.
(§2) 3-(3',4'-methylenedioxy phenyl)-piperidine acrylate, the control agents 96.5% of chlorothalonil technical and 97.0% of procymidone technical. Agents for testing and the control agents chlorothalonil and procymidone are treated at 5-8 concentrations of different gradients on the basis of preliminary tests to ensure that the inhibition rates for treatments at all the concentrations are between 10% and 90%.
(§3) For specific determination methods, with reference to Embodiment 1. The concentration of active ingredients in the culture medium is used as the testing concentration to calculate the toxic regression equation (Y=bx+a) and the median inhibition concentration EC50, 95% confidence limit, and relative toxicity. Relative toxicity (compared to chlorothalonil) = EC50 of chlorothalonil / EC50 of 3-(3',4'-methylenedioxy phenyl)-piperidine acrylate, and relative toxicity (compared to procymidone) = EC50 of procymidone / EC50 of 3-(3',4'-methylenedioxy phenyl)-piperidine acrylate.

Sclerotinia sclerotiorum [8] = assay: as above
Procedure: as §1, §2, §3

Valsa mali [9] = assay: as above
Procedure: as §1, §2, §3

Exserohilum turcicum [10] = assay: as above
Procedure: as §1, §2, §3

Botrytis cinerea [11] = assay: as above
Procedure: as §1, §2, §3

Coniella diplodiella = assay: Ex vivo mycelial growth inhibition, growth rate method; conditions: 1 mg/mL
Source text: (§4) 3-(3',4'-methylenedioxy phenyl)-N-n-propyl acrylamide (at a purity of 99%), 3-(3',4'-methylenedioxy phenyl)-piperidine acrylate (at a purity of 99%), the control agents, 96.5% of chlorothalonil technical (non-systemic broad-spectrum fungicide), 97.2% of carbendazim technical (systemic broad-spectrum fungicide), 97.0% of procymidone technical (systemic fungicide), 96.0% of dimethomorphtechnical ((E,Z)-4-[3-(4-chlorphenyl)3-(3,4-dimethoxy phenyl)acryloyl]morpholine, systemic fungicide), 97.0% of azoxystrobin technical (systemic broad-spectrum fungicide).
as §1
(§5) The computational formula is as below: the inhibition rate of mycelial growth (%) = [(the diameter of the control colony - the diameter of the treated colony)/the diameter of the control colony] × 100.
(§6) The inhibition results of each agent at a concentration of 1 mg/mL on the mycelial growth of plant pathogenic fungi are shown in Tables 1 and 2.

[12] = test system: F. oxysporum f. sp. vasinfectum; assay: as above; conditions: 1 mg/mL
Source text: as §4, §1, §5, §6

Phytophthora capsici = assay: as above; conditions: Phytophthora capsici; 1 mg/mL
Source text: as §4, §1, §5, §6

Colletotrichum capsici [13] = assay: as above; conditions: 1 mg/mL
Source text: as §4, §1, §5, §6

Pythium aphanidermatum = assay: as above; conditions: 1 mg/mL
Source text: as §4, §1, §5, §6

Mycosphaerlla melonis = assay: as above; conditions: 1 mg/mL
Source text: as §4, §1, §5, §6

Sclerotinia sclerotiorum [14] = assay: as above; conditions: 1 mg/mL
Source text: as §4, §1, §5, §6

Valsa mali [15] = assay: as above; conditions: 1 mg/mL
Source text: as §4, §1, §5, §6

F. verticillioide = assay: as above; conditions: 1 mg/mL
Source text: as §4, §1, §5, §6

F. oxysporum f. sp. lini = assay: as above; conditions: 1 mg/mL
Source text: as §4, §1, §5, §6

Exserohilum turcicum [16] = assay: as above; conditions: 1 mg/mL
Source text: as §4, §1, §5, §6

Botrytis cinerea [17] = assay: as above; conditions: 1 mg/mL
Source text: as §4, §1, §5, §6

[18] = test system: Botryosphaeria berengeriana; assay: as above; conditions: 1 mg/mL
Source text: as §4, §1, §5, §6

Thanatephorus cucumeris = assay: as above; conditions: 1 mg/mL
Source text: as §4, §1, §5, §6

[19] = test system: Gaeumannomyces graminis var. graminis and G. graminis var. tritici; assay: as above; conditions: 1 mg/mL
Source text: as §4, §1, §5, §6

C. gossypii = assay: as above; conditions: 1 mg/mL
Source text: as §4, §1, §5, §6

Rhizoctonia solani = assay: as above; conditions: Rhizoctonia solani; 1 mg/mL
Source text: as §4, §1, §5, §6

[20] = test system: Botryosphaeriana berengeriana; assay: as above; conditions: 1 mg/mL
Source text: as §4, §1, §5, §6

Fusarium graminearum [21] = assay: microbe, parasite or virus in culture; remark: listed apart in the source
[22] = EC50 of chlorothalonil / EC50 of agent
[23] = EC50 of procymidone / EC50 of agent
[24] = median inhibition concentration

N#Cc1c(Cl)c(Cl)c(Cl)c(C#N)c1Cl [Chlorothalonil, chlorothalonil]
Average Diameter of the Colony (Phytophthora infestans [1]): 0.20 cm
Average Diameter of the Colony (F. graminearum [2]; F. graminearum, 1 mg/mL): 1.92 cm
inhibition at 1000 µg/mL (F. graminearum [2]; Fusarium graminearum, read-out: Inhibition Rate): 77.7%
Average Diameter of the Colony (Pyricularia grisea; 1 mg/mL): 1.63 cm
inhibition at 1000 µg/mL (Pyricularia grisea; read-out: Inhibition Rate): 81.9%
Relative Toxicity (Compared to Chlorothalonil) (F. graminearum [3]; [22]): 1.00
Relative Toxicity (Compared to Procymidone) (F. graminearum [3]; [23]): 3.75
EC50 (F. graminearum [3]; Fusarium graminearum, median inhibition concentration): 227 mg/L (≈ 853 µM)
Average Diameter of the Colony (Fusarium graminearum [4]; 1 mg/mL): 0.71 cm
inhibition at 1000 µg/mL (Fusarium graminearum [4]; read-out: Inhibition Rate): 86.7%
Relative Toxicity (Compared to Chlorothalonil) (Phytophthora infestans [5]; [22]): 1.00
Relative Toxicity (Compared to Procymidone) (Phytophthora infestans [5]; [23]): 6.78
EC50 (Phytophthora infestans [5]; [24]): 115 mg/L (≈ 431 µM)
Average Diameter of the Colony (Phytophthora infestans [6]): 1.78 cm
Relative Toxicity (Compared to Chlorothalonil) (Magnaporthe grisea; [22]): 1.00
Relative Toxicity (Compared to Procymidone) (Magnaporthe grisea; [23]): 0.71
EC50 (Magnaporthe grisea; Pyricularia oryzae, median inhibition concentration): 436 mg/L (≈ 1640 µM)
EC50 (Colletotrichum capsici [7]; Colletotrichum truncatum, median inhibition concentration, read-out: EC50): 404 mg/L (≈ 1520 µM)
Relative Toxicity (Compared to Chlorothalonil) (Colletotrichum capsici [7]; [22]): 1.00
Relative Toxicity (Compared to Procymidone) (Colletotrichum capsici [7]; [23]): 1.28
Relative Toxicity (Compared to Chlorothalonil) (Sclerotinia sclerotiorum [8]; [22]): 1.00
Relative Toxicity (Compared to Procymidone) (Sclerotinia sclerotiorum [8]; [23]): 1.13
EC50 (Sclerotinia sclerotiorum [8]; [24]): 62.7 mg/L (≈ 236 µM)
EC50 (Valsa mali [9]; Cytospora mali, median inhibition concentration, read-out: EC50): 418 mg/L (≈ 1570 µM)
Relative Toxicity (Compared to Chlorothalonil) (Valsa mali [9]; [22]): 1.00
Relative Toxicity (Compared to Procymidone) (Valsa mali [9]; [23]): 1.02
Relative Toxicity (Compared to Chlorothalonil) (Exserohilum turcicum [10]; [22]): 1.00
Relative Toxicity (Compared to Procymidone) (Exserohilum turcicum [10]; [23]): 0.26
EC50 (Exserohilum turcicum [10]; median inhibition concentration, read-out: EC50): 411 mg/L (≈ 1550 µM)
Relative Toxicity (Compared to Chlorothalonil) (Botrytis cinerea [11]; [22]): 1.00
Relative Toxicity (Compared to Procymidone) (Botrytis cinerea [11]; [23]): 0.45
EC50 (Botrytis cinerea [11]; [24]): 177 mg/L (≈ 665 µM)
Average Diameter of the Colony (Coniella diplodiella): 0.00 cm
inhibition at 1000 µg/mL (Coniella diplodiella): 100%
Average Diameter of the Colony [12]: 2.45 cm
inhibition at 1000 µg/mL ([12]; Fusarium oxysporum): 66.2%
Average Diameter of the Colony (Phytophthora capsici): 0.91 cm
inhibition at 1000 µg/mL (Phytophthora capsici): 82.8%
Average Diameter of the Colony (Colletotrichum capsici [13]): 1.95 cm
inhibition at 1000 µg/mL (Colletotrichum capsici [13]; Colletotrichum truncatum): 71.2%
Average Diameter of the Colony (Pythium aphanidermatum): 1.14 cm
inhibition at 1000 µg/mL (Pythium aphanidermatum): 83%
Average Diameter of the Colony (Mycosphaerlla melonis): 2.16 cm
inhibition at 1000 µg/mL (Mycosphaerlla melonis): 74.9%
Average Diameter of the Colony (Sclerotinia sclerotiorum [14]): 0.00 cm
inhibition at 1000 µg/mL (Sclerotinia sclerotiorum [14]): 100%
Average Diameter of the Colony (Valsa mali [15]): 1.65 cm
inhibition at 1000 µg/mL (Valsa mali [15]; Cytospora mali): 79.1%
Average Diameter of the Colony (F. verticillioide): 0.87 cm
inhibition at 1000 µg/mL (F. verticillioide): 74.3%
Average Diameter of the Colony (F. oxysporum f. sp. lini): 3.73 cm
inhibition at 1000 µg/mL (F. oxysporum f. sp. lini; Fusarium oxysporum): 58.6%
Average Diameter of the Colony (Exserohilum turcicum [16]): 1.41 cm
inhibition at 1000 µg/mL (Exserohilum turcicum [16]): 77.3%
Average Diameter of the Colony (Botrytis cinerea [17]): 1.16 cm
inhibition at 1000 µg/mL (Botrytis cinerea [17]): 84.5%
Average Diameter of the Colony [18]: 2.11 cm
inhibition at 1000 µg/mL [18]: 69%
Average Diameter of the Colony (Thanatephorus cucumeris): 1.05 cm
inhibition at 1000 µg/mL (Thanatephorus cucumeris): 87.8%
Average Diameter of the Colony [19]: 2.51 cm
inhibition at 1000 µg/mL [19]: 64.9%
Average Diameter of the Colony (C. gossypii; C. gossypii): 1.45 cm
inhibition at 1000 µg/mL (C. gossypii; Colletotrichum gossypii, C. cossypii, read-out: Inhibition Rate): 73.2%
Average Diameter of the Colony (Rhizoctonia solani): 0.00 cm
inhibition at 1000 µg/mL (Rhizoctonia solani): 100%
Average Diameter of the Colony [20]: 0.94 cm
inhibition at 1000 µg/mL [20]: 83.5%
Relative Toxicity (Compared to Chlorothalonil) (Fusarium graminearum [21]; [22]): 1.00
Relative Toxicity (Compared to Procymidone) (Fusarium graminearum [21]; [23]): 0.31
EC50 (Fusarium graminearum [21]; [24]): 469 mg/L (≈ 1760 µM)
